# Columns and labels:
# [1] = tested on: myosin heavy chains; experiment: Myosin heavy chain gene expression in quadriceps of supplemented C57Bl6 mice; format: in vivo; details: 20mg/kg oral gavage
# Description: Male C57Bl/6J wild-type mice were obtained from Janvier at 12 weeks of age and were randomly assigned to one of the two groups based on body weight. Mice were housed 2 per cage and maintained on a 12-hour light/dark cycle (lights on at 7:30 pm). Food and water were provided ad libitum. Enrichment (nesting cotton squares) was provided in each cage. Mice were treated once daily by oral gavage with vehicle (50% PEG-400, 0.5% Tween 80, and 49.5% distilled water) or FuFA-F2 (20 mg/kg). All animal experiments were performed according to European directives (86/609/CEE and 2010/63/CEE) and approved by the regional animal experimentation ethics committe: Région Languedoc-Roussillon (No36). Our institutional guidelines for the care and use of laboratory animals were observed. […]
# The PCR overall efficiency (E) was calculated from the slopes of the standard curves according to the equation E = [10^(-1/slope)] - 1, and this value was higher than 95% for all assays. The relative abundance of each sample was then normalized according to the equation: relative quantity = 2^- […]Ct. All of the experiments were performed according to the minimum information for publication of quantitative real-time PCR experiment (MIQE) guidelines (Bustin et al., 2009, Clin Chem, Vol. 55(4) : 611-622; Schmittgen et al., 2008, Net Protoc, Vol. 3(6) : 1101-1108). […]
# [2] = tested on: LC3-II/LC3-I; experiment: Autophagic flux, conversion of LC3-I to LC3-II by Western blot in C2C12 myotubes; format: cell-based, Mouse; details: whatever the dose
# Description: (§1) Mouse myoblasts of the C2C12 cell line (ATCC) were seeded at a plating density of 7000 cells/cm2 in 6-well plates. They were grown in DMEM high glucose (4.5g/l) supplemented with gentamycin (50 µg/mL), amphotericin (50 µg/mL), and fetal calf serum (10%). Terminal differentiation was induced at cell confluence by lowering the medium serum concentration (0.5%).
# (§2) When indicated, FuFA-F2 was added to the culture medium at the indicated concentration. For the differentiation studies, FuFA-F2 was added at the confluence at the same time as the change in media condition. Three doses of FuFA-F2 were studied at a final concentration of 1, 10, or 50 µM. Human insulin was used at a concentration of 100 nM.
# Protein levels were assessed by Western blotting. Total proteins were measured using the Bio-Rad protein assay (Hercules, CA, USA) according to the manufacturer's instructions. […]
# AMP activated protein kinase (AMPK) is a crucial cellular energy sensor protein and is activated when intracellular ATP level decreases to regulate autophagy initiation (Hardie et al., 2012, Nat Rev Mol Cell Bio, Vol. 13 (4) : 251-262). […] The autophagy-related signaling was further evaluated by measuring the MTORC1 mediated phosphorylation […] at Ser757 which disrupts the interaction between ULK1 and AMPK. […] Therefore, the autophagic flux was assessed by measuring the conversion of LC3-I to LC3-II, through lipidation.
# [3] = tested on: Citrate synthase; experiment: Citrate synthase activity of C2C12 myotubes; format: cell-based, Mouse; details: 3 days of treatment of C2C12 myotubes
# Description: as §1, §2
# Mitochondrial respiratory complex activities were determined as previously described (Casas et al., 2008, PloS ONE, Vol. 3(6) : e2501). Citrate synthase (CS) activity was measured according to Srere (Srere et al., 1967, Science, Vol. 158(3803) : 936-937) by following the color formation of 5-thio-2-nitrobenzoic acid at 412 nm. The enzymatic activity of complex IV (cytochrome c oxidase) was measured according to Wharton and Tzagoloff (Wharton et al., 1967, Methods in Enzymology, Vol. 10, Edn Elsevier BV, Amsterdam, The Netherlands), a spectrophotometer following the oxidation of reduced cytochrome c at 550 nm, pH 7.4, and 37 °C. Cytochrome c was reduced with sodium dithionite. […]
smiles,measurement,setting,value
CCCCCc1cc(C)c(CCCCCCCCC(=O)O)o1 [FuFA-F2],MyHCIIa expression at the expense of MyHCIIb,[1],trend towards an increase
same,expression of the different myosin heavy chains,[1]; treated vs not treated,did not indicate any significant difference
same,ratio of LC3-II/LC3-I,[2],decreased
same,citrate synthase activity,[3],no effect
